≈ marks a conversion by molar mass, not a printed value. Where two headings read alike, the source gives them in different places.
What was measured:
[1] = system: Vibrio fischeri; test: microbe, parasite or virus in culture; format: cell-based; conditions: Aliivibrio fischeri; for EC50: 0.5 h, read-out: EC50 V. fischeri (with confidence interval 2.5–97.5%)
Description: (§1) Stock solutions and dilutions were prepared in 2% NaCl in 0.02 M phosphate buffer, pH 7. The freeze-dried bacteria were rehydrated prior to testing in a reactivation solution. Culture suspensions and diluted samples were pre-incubated at 15 °C for 15 min. After the initial luminescence was measured, 0.5 mL of the culture suspension was mixed with the same volume of a diluted sample. The final bioluminescence was measured after 30 min. Incubation was kept at 15 °C (LUMIStox 300 meter, Dr. Lange GmbH, Berlin, Germany). The relative toxicity of the samples was expressed as a percentage of luminescence inhibition compared to the controls.
as §1, with “m,” for “meter,”

[2] = system: aquatic organisms
[3] = system: Arthrobacter globiformis; test: A. globiformis dehydrogenase inhibition test (version without soil); conditions: for EC50: read-out: EC50 A. globiformis
Description: (§2) All tests were carried out in accordance with the OECD or ISO guidelines. In general the experimental part was divided into three main steps: (i) determination of the toxicity of the native forms of pharmaceuticals (their racemic mixtures), (ii) toxicity evaluation of the selected TPs of these pharmaceuticals, and (iii) preliminary toxicity assessment of the enantiomers of selected pharmaceuticals. For each assay, range-finding tests were conducted, in order to determine the range of concentrations for the definitive tests. The main tests were repeated three times in at least two parallel replicates, with a minimum of five concentrations for native forms of the selected pharmaceuticals (including their enantiomers). The exact number of replicates and concentrations tested was included in the description of each test. […] However, TPs were tested in a different manner; first, the tests were carried out at the limit concentration of 100 mg L^−1. […] Such approach was applied in order to observe the relative toxicity of the selected TP and its native form.
The test strain was obtained from the German Collection of Microorganisms (DSMZ). A version of the test without soil was performed. Bacteria was grown in a sterile medium containing 10 g L^−1 peptone from casein, 5 g L^−1 yeast extract, 5 g L^−1 glucose, and 5 g L^−1 NaCl. For the test, the medium was diluted in a ratio of 1:3 in water. The inoculum was the bacteria in a log-growth phase. Cell density was adjusted to 1 × 10^8 cells mL^−1, which corresponds to an optical density (OD600nm) of 0.4. The test was performed in 24-well microplates. Each well contained 1 mL of solution of the tested compound in water and 1 mL of bacterial inoculum. Next, the plates were incubated for 2 h at 30 °C on a horizontal shaker with a speed of 100 rpm. To each well, a portion of 0.6 mL of the redox active dye resazurine (45 mg L^−1) dissolved in buffer was added. The microplates were further incubated for 1 h (30 °C, 100 rpm). To stop the reduction process, the plates were centrifuged at 3600g for 10 min. Aliquots (300 μl) of supernatant from each well were immediately transferred to the wells of a 96-well microplate in triplicates. Finally, the dehydrogenase activity was determined by measuring the formation of resorufin from resazurine using a fluorimeter ([…]). Dehydrogenase inhibition was calculated using Eq. 1.
where FBTS is the measured fluorescence of the blank (medium) with the tested substance, FTS is the measured fluorescence of the sample, FBNC is the measured fluorescence of the blank, and FNC is the measured fluorescence of the negative control (with bacteria).

[4] = system: algae; conditions: cited from earlier work
[5] = system: Raphidocelis subcapitata; test: R. subcapitata reproduction (growth) inhibition test; format: cell-based; conditions: Raphidocelis subcapitata, 72 h, growth inhibition by cell counts, 72 h; read-out: EC50 R. subcapitata (with confidence interval 2.5–97.5%)
Description: as §2
(§3) Dose-response curves were fitted using a linear logistic or logistic model (the model giving the best fit was chosen) (https://cran.r-project.org/web/packages/drfit/drfit.pdf). The mathematic formulas applied for this purpose are presented and described in the Supplementary Material. The EC50 values were given since log EC50 is a model parameter in the logistic as well as in linear logistic model.
Test organisms were provided from Algal Culture Collection (Universität Göttingen, Germany). […] The light-dark cycle was different from the OECD guidelines, and it was introduced to imitate natural growth conditions. In order to ensure that the algae are in the exponential growth phase when used to inoculate the test solutions, the stock culture was diluted three times a week. The test was carried out in 25 mL suspension cell culture flasks (Nunc) (working volume 10 mL). All operations were performed under sterile conditions. The initial cell concentration was 5 × 10^4 cells mL^−1. Eight different concentrations of every compound in three replicates and a minimum of six controls were used in each test. […] The test flasks were incubated on a shaker with a speed of approx. 75 rpm at the temperature and light conditions described above. Growth inhibition was calculated using the cell counts of the treated samples in relation to the untreated controls after 72 h of exposure. The cells were counted with the use of CASY TT Cell counter & analyzer.

[6] = system: Daphnia magna; test: D. magna acute immobilization test; format: in vivo; conditions: Daphnia magna; for mortality at 70 µg/mL: read-out: Immobilization; for EC50: immobilization, 48 h, read-out: EC50 D. magna (with confidence interval 2.5–97.5%)
Description: as §2, §3
Five pre-fed test organisms were incubated with the studied compounds diluted in 10 mL of test media in glass test vessels at 20 °C (± 1 °C) in darkness for 48 h. Each test consisted of a control and five different concentrations of the studied compound in four parallel replicates. In order to achieve a full dose-response relationship, the concentration series covered the range of 0–100% immobilization. The number of immobilized or dead organisms was checked after 24 and 48 h. The negative effect of exposure to the tested compounds was expressed by the number of immobilized organisms compared to the controls.

[7] = system: duckweed; conditions: ref Cleuvers 2003; cited from earlier work
[8] = system: Lemna minor; test: L. minor growth inhibition test; conditions: Lemna minor; for EC50: 168 h, read-out: EC50 L. minor (with confidence interval 2.5–97.5%), growth rate inhibition by frond area, 7 days
Description: as §2, §3
One week before the assay, the inoculum cultures were prepared; eight healthy plants were placed into a new portion of the medium. Two days before the test, the plants were transferred to a fresh medium, in order to supplement nutrients and to eliminate plant metabolites. The experiments were performed in six-well plates under the conditions described above. The pH value of the Steinberg medium and all solutions was 5.5 (± 0.5). Every test included six different concentrations of compound and six controls in three replicates. The test started with one plant consisting of three fronds and the measured endpoint was the inhibition of growth rate determined by comparing the frond area (mm^2) for the treated plants and untreated controls.

[9] = system: L. minor; conditions: cited from earlier work
[10] = system: V. fischeri; conditions: cited from earlier work
[11] = ref US Food and Drug Administration 1996

## COc1ccc2cc([C@H](C)C(=O)O)ccc2c1 [NAP, Naproxen]
[1]; luminescence inhibition, 30 min, 15 °C
  EC50: 25.2 µg/mL (≈ 109 µM)
[1]; concentration 25 mg L^−1, read-out: Luminescence inhibition
  inhibition at 25 µg/mL: 51%
[2]; for the organisms named in the sentence
  classification on the basis of EC50 values (EC 93/67/EEC): harmful
[3]
  EC50: > 100 µg/mL
[4]; 72 h, ref Minguez et al. 2016
  EC50, 72h algae: 44.40 µg/mL (≈ 193 µM)
[4]; 96 h, ref Isidori et al. 2005b
  EC50, 96h algae: 31.82 µg/mL (≈ 138 µM)
[5]
  EC50: 27.1 µg/mL (≈ 118 µM)
[6]; concentration 70 mg L^−1
  mortality at 70 µg/mL: 32%
[6]
  EC50: 74.4 µg/mL (≈ 323 µM)
[7]
  EC50 duckweed: 24 µg/mL (≈ 104 µM)
[8]
  EC50: 20.7 µg/mL (≈ 89.9 µM)

## O=C(O)Cc1ccccc1Nc1c(Cl)cccc1Cl [DIC, Diclofenac]
[9]; ref Quinn et al. (2011)
  EC50 L. minor: 47.6 µg/mL (≈ 161 µM)
[1]
  EC50: 11.6 µg/mL (≈ 39.2 µM)
[1]; read-out: Luminescence inhibition
  inhibition at 10 µg/mL: 45%
[2]
  classification on the basis of EC50 values (EC 93/67/EEC): harmful
[3]
  EC50: > 100 µg/mL
[3]; read-out: inhibition of bacterial growth (A. globiformis)
  inhibition at 100 µg/mL: 30%
[6]; concentration 60 mg L^−1
  mortality at 60 µg/mL: 50%
[6]
  EC50: 59.1 µg/mL (≈ 200 µM)
[8]
  EC50: 16.5 µg/mL (≈ 55.8 µM)
[8]; read-out: Growth inhibition of L. minor
  inhibition at 15 µg/mL: 33%

## COc1cccc(C2(O)CCCCC2CN(C)C)c1 (stereo not shown) [TRA, Tramadol]
[9]; [11]
  toxicity to L. minor: not toxic
[10]; at the concentration of 100 mg L^−1, ref Romanucci et al. (2019)
  toxic effect towards V. fischeri: did not observed any toxic effect
[10]; [11]
  toxicity to V. fischeri: not toxic
[6]
  mortality at 70 µg/mL: 44%
